# Experimental data from US5519006A, “Phosphonated arylethanolamine compounds with anti-hyperglycemic and/or anti-obesity activity” (SmithKline Beecham plc, priority 1992, dated 1996).
# Legend:
# Rat white adipocytes = test: Lipolysis stimulated in rat white adipocytes (glycerol release); format: cell-based; conditions: Adipocyte, 0.5 h, 30 minutes
# Experimental: Rat white adipocytes were prepared by collagenase digestion as described by Rodbell (1964) with the modification of Honnor et al. (1985), in that adenosine (200 nM) was included in the preparation to inhibit basal lipolysis.
# Lipolysis stimulated by β-agonists was measured over 30 minutes in medium where the adenosine concentration was controlled; the medium included (-)-N^6 -(2-phenylisopropyl)adenosine (100 nM)+deaminase as decribed by Honnor et al. (1985). The incubation was stopped by addition of trichloracetic acid (0.2 ml of 10% w/v) to 1 ml of cells. Glycerol was measured by the fluorimetric method of Boobis and Maugham (1983).
# Rat β1 adrenoceptor = molecular target: T1, Rat β1 adrenoceptor (Rattus norvegicus, UniProt P18090); test: β1-Adrenoceptor agonism, increase in rate of spontaneously beating right atria; format: cell-based, Rat (female Sprague-Dawley); conditions: in vitro, 37° C., Krebs-Henseleit solution
# T1 construct: Spontaneously beating right atria were removed; from tissue; host or cells: right atria of female Sprague-Dawley rats
# T1 sequence (P18090 whole entry): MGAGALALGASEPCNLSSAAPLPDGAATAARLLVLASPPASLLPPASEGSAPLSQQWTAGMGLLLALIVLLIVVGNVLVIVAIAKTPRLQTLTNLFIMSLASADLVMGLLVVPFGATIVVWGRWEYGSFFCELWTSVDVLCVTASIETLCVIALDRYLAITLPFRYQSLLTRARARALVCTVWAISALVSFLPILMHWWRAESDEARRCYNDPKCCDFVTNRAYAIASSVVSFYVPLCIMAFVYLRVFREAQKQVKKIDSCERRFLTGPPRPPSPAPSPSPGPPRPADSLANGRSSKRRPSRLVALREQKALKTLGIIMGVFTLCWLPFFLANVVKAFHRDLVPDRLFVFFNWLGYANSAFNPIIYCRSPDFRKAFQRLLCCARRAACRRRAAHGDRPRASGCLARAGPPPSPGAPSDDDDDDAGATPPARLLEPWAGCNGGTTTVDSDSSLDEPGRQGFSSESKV
# Experimental: (§1) Agonist Activity at Rat β1 and β2 Adrenoceptors In Vitro
# Female Sprague-Dawley rats (150-250 g) were killed by a blow to the head and exsanguinated. Spontaneously beating right atria were removed by the method of Broadley and Lumley (1977) and mounted on a glass tissue holder. Each tissue was placed in 30 ml organ baths at 37° C. containing Kreb's-Henseleit solution. Each atrium was attached to an isometric transducer by cotton and placed under an initial resting tension of 1 g. Rate recordings from the spontaneous beating atria were obtained from the tension signal using a Lectromed Type 4522 ratemeter. All traces were recorded on a Lectromed M4 chart recorder. β-adrenoceptor agonists were then added to the Krebs medium in a cumulative fashion and the results expressed as a percentage increase in atrial rate.
# (§2) Agonist EC50 (atria) and IC50 (uteri) were calculated as the concentration of agonist producing 50% of their maximum increase in atrial rate or uterine relaxation. Relative intrinsic activity expressed as the maximal responses to test agonists relative to isoprenaline (=1.0) in both atria and uteri.
# Rat β2 adrenoceptor = molecular target: T2, Rat β2 adrenoceptor (Rattus norvegicus, UniProt P10608); test: β2-Adrenoceptor agonism, inhibition of contraction of K+-pre-contracted uterine strips; format: cell-based; conditions: pre-contracted with 40 mM K+
# T2 construct: Rat uterine horns were removed and bisected longitudinally; from tissue; host or cells: rat uterine horns (uterine strips)
# T2 sequence (P10608 whole entry): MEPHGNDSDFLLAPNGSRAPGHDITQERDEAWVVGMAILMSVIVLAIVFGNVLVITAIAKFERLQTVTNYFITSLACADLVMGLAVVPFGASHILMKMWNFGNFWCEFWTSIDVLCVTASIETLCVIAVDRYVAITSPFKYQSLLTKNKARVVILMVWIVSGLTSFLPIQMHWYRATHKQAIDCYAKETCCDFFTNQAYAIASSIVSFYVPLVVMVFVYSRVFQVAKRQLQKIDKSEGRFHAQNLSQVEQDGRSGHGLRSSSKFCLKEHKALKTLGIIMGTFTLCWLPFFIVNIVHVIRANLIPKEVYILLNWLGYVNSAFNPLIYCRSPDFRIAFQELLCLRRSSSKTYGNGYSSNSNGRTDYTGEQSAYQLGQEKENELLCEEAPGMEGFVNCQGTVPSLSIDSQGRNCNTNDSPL
# Experimental: as §1
# Rat uterine horns were removed and bisected longitudinally. Each tissue was tied to a glass tissue holder and placed in Krebs-Henseleit solution in a 30 ml organ bath as before. Tissues were placed under a resting tension of 1 g and allowed to equilibrate. Each uterine strip was pre-contracted by the addition of 40 mM K^+ to the bath to produced a steady tonic contraction. β-agonists were then added to the bath in a cumulative manner and results were expressed as percentage inhibition of contraction.
# as §2
structure (smiles),measurement,setting,value
"CCOP(=O)(O)COc1ccc(C[C@@H](C)NC[C@H](O)c2cccc(Cl)c2)cc1 (relative stereo) [Example 2, (RR,SS)-Sodium Ethyl 4-[2-[2-(3-chlorophenyl)-2-hydroxyethylamino]propyl]phenoxymethylphosphonate]",EC50,Rat white adipocytes,0.077 µM
same,Emax,Rat white adipocytes; read-out: Intrinsic Activity,95%
same,Ki,Rat β1 adrenoceptor,37600 nM
same,Ki,Rat β2 adrenoceptor,10000 nM
